Results taken from PubChem BioAssay AID1361 (SRMLSC, 2008).
Activity calls are given as the source filed them. How the calls were made is not given here.

Experiment: mitochondrial fusion inhibitors, confirmation, cell-based, chemical genetic, wild-type and mutant (AID 1361)
Conditions: Cell-based mitochondrial fusion phenotype, imaging
[1] = mutant cells, measured here: mutant cell line IC50

c1ccc2c(c1)CCN(c1ncnc3c1[nH]c1ccccc13)C2
IC50 (WT cells): > 25 µM (inactive) | IC50 [1]: > 25 µM

O=[N+]([O-])c1ccccc1/C=N/n1c(C2CCCCC2)n[nH]c1=S
IC50 (WT cells): > 25 µM (inactive) | IC50 [1]: > 25 µM

Cc1ccc(-n2cc(C(=O)c3ccc(F)cc3)nn2)cc1Cl
IC50 (WT cells): > 25 µM (inactive) | IC50 [1]: > 25 µM

CC(C)CN(C(=O)c1nn(C)c(=O)c2ccccc12)c1nc2ccccc2s1
IC50 (WT cells): 21.9 µM | IC50 [1]: > 25 µM

C[C@@H](C[C@@H](O)[C@H](O)C(C)(C)O)[C@@H]1CC[C@]2(C)C3=CC[C@H]4C(C)(C)C(=O)CC[C@]4(C)[C@H]3CC[C@@]12C
IC50 (WT cells): > 25 µM (inactive) | IC50 [1]: > 25 µM

Fc1ccc(Cn2nnnc2C(c2cccs2)N2CCCCCC2)cc1 (centres undefined)
IC50 (WT cells): > 25 µM (inactive) | IC50 [1]: > 25 µM

CCOC(=O)c1sc(NC(=O)/C=C/c2cnn(CC)c2C)c(C(=O)OCC)c1C
IC50 (WT cells): > 25 µM (inactive) | IC50 [1]: > 25 µM

Cc1ccc(C(c2nnnn2CCc2ccccc2)N2CCC(C)CC2)cc1 (centres undefined)
IC50 (WT cells): > 25 µM (inactive) | IC50 [1]: > 25 µM

FC(F)(F)c1cnc(N2CCC(=NOCc3ccc(Cl)cc3)CC2)c(Cl)c1
IC50 (WT cells): 13.7 µM | IC50 [1]: > 25 µM

O=C(CNC(=S)N(Cc1ccccc1)Cc1cccs1)NCc1ccc(F)cc1
IC50 (WT cells): > 25 µM (inactive) | IC50 [1]: > 25 µM

N#Cc1c(-c2cccnc2)c2c([nH]c1=S)CCCC2
IC50 (WT cells): > 25 µM (inactive) | IC50 [1]: > 25 µM

Cc1nc(-c2ccccc2)sc1-c1nc(-c2ccncc2)ncc1S(=O)(=O)c1ccccc1
IC50 (WT cells): 10.5 µM | IC50 [1]: > 25 µM

COc1ccc(-c2nc(-c3ccccc3)[nH]c(=O)c2C#N)cc1
IC50 (WT cells): > 25 µM (inactive) | IC50 [1]: > 25 µM

CCC(C)c1ccc(NC(=S)Nc2ccc(OC)cc2C)cc1 (centres undefined)
IC50 (WT cells): 18.5 µM | IC50 [1]: > 25 µM

CC1(C)CC(=O)C(C=NCc2cccnc2)=C(O)C1
IC50 (WT cells): > 25 µM (inactive) | IC50 [1]: > 25 µM

Cc1ccc(O)c(-c2cc(-c3ccccc3[N+](=O)[O-])[nH]n2)c1
IC50 (WT cells): > 25 µM (inactive) | IC50 [1]: > 25 µM

Clc1ccc2c(c1)C(c1ccccc1Cl)=NCc1nnc(N3CCN(CCSc4ccccc4)CC3)n1-2
IC50 (WT cells): 13.9 µM | IC50 [1]: > 25 µM

CN(C)S(=O)(=O)c1ccc(C(=O)Nc2nnc(-c3ccc4c(c3)CCCC4)o2)cc1
IC50 (WT cells): 12.8 µM | IC50 [1]: 22 µM

CCC(=O)Nc1ccc(-c2nnc(SCc3ccc(C(=O)Nc4nccs4)cc3)n2CC)cc1
IC50 (WT cells): > 25 µM (inactive) | IC50 [1]: > 25 µM

O=C(NC(=S)Nc1ccccc1N1CCCCC1)c1ccco1
IC50 (WT cells): > 25 µM (inactive) | IC50 [1]: 23 µM

Cc1ccc(NC(=S)N(CCCN2CCCC2)Cc2cccn2Cc2ccc(Cl)cc2)cc1C
IC50 (WT cells): 13.1 µM | IC50 [1]: > 25 µM

CC1CC(C)CN(c2ncnc3c2cnn3Cc2ccc(Cl)cc2)C1 (centres undefined)
IC50 (WT cells): 12.8 µM | IC50 [1]: 17.9 µM

O=C(Nn1c(-c2ccccc2)nc2ccccc2c1=O)C1CCC1
IC50 (WT cells): > 25 µM (inactive) | IC50 [1]: > 25 µM

CN1C(=S)SC(C)(C)C1(C)NO (centres undefined)
IC50 (WT cells): > 25 µM (inactive) | IC50 [1]: > 25 µM

COc1cc(CNn2cn[nH]c2=S)cc(Cl)c1OCc1ccc(F)cc1
IC50 (WT cells): 21.2 µM | IC50 [1]: > 25 µM

Cc1cc(NC(=O)COC(=O)C(Nc2ccc(C(F)(F)F)cc2Cl)C(C)C)no1 (centres undefined)
IC50 (WT cells): 13.8 µM | IC50 [1]: 24.2 µM

CCc1ccc2ncc(S(=O)(=O)c3ccc(C)c(C)c3)c(N3CCCC3)c2c1
IC50 (WT cells): 14.6 µM | IC50 [1]: > 25 µM

Cc1ccccc1C(=O)Oc1ccc(Sc2ccc(O)cc2)cc1
IC50 (WT cells): 8.72 µM | IC50 [1]: > 25 µM

CC(C(=O)Nc1ccc(Cl)cc1Cl)N1CC=C(c2ccccc2)CC1 (centres undefined)
IC50 (WT cells): 8.63 µM | IC50 [1]: 13.3 µM

CC1=CCC[C@@H]2[C@@](C)(CC/C(C)=C/C(=O)O)[C@H](C)CC[C@@]12C
IC50 (WT cells): 21.7 µM | IC50 [1]: > 25 µM

CCOC(=O)/C(=C\c1ccc(OC(F)F)cc1)C1=Nn2c(nnc2-c2ccc(Cl)cc2)SC1
IC50 (WT cells): 10.8 µM | IC50 [1]: > 25 µM

Cc1ccc(C(C)C)c(OCc2ccc(C(=O)N/N=C/c3ccc(O)cc3O)cc2)c1
IC50 (WT cells): > 25 µM (inactive) | IC50 [1]: > 25 µM

CCOc1ccc(C(=O)C(CCC(CN(C)C)C(=O)c2ccc(OCC)cc2)CN(C)C)cc1 (centres undefined)
IC50 (WT cells): 20.4 µM | IC50 [1]: > 25 µM

Cc1sc(NC(=O)c2ccco2)c(C(c2ccc(F)cc2)N2CCN(C)CC2)c1C (centres undefined)
IC50 (WT cells): 14.4 µM (inactive) | IC50 [1]: > 12.5 µM

COC(=O)CP(=O)(c1ccccc1)c1ccccc1
IC50 (WT cells): > 25 µM (inactive) | IC50 [1]: > 25 µM

CCOC(=O)C1=C(C)C(c2cccc(Oc3ccccc3)c2)NC(=S)N1 (centres undefined)
IC50 (WT cells): > 25 µM (inactive) | IC50 [1]: > 25 µM

CN(C)S(=O)(=O)c1cccc(C(=O)NCC2CCCO2)c1 (centres undefined)
IC50 (WT cells): > 25 µM (inactive) | IC50 [1]: > 25 µM

O=C(N1CCOCC1)N1CCN(C(c2ccccc2)c2ccccc2)CC1
IC50 (WT cells): > 25 µM (inactive) | IC50 [1]: > 25 µM

O=C(CCCCCN1C(=O)c2ccccc2C1=O)Nc1ccc(S(=O)(=O)N2CCCCC2)cc1
IC50 (WT cells): > 25 µM (inactive) | IC50 [1]: > 12.5 µM

Cc1nc(=O)c(-c2ccccc2)c(C)n1CCCCCC(=O)O
IC50 (WT cells): > 25 µM (inactive) | IC50 [1]: > 25 µM

O=S(Cc1ccc(Br)cc1)Cc1nnc(SCc2c(F)cccc2Cl)n1-c1ccccc1 (centres undefined)
IC50 (WT cells): > 25 µM (inactive) | IC50 [1]: > 25 µM

COc1ccc(OC)c(C(=O)c2coc3ccc(OC)cc23)c1
IC50 (WT cells): > 25 µM (inactive) | IC50 [1]: > 25 µM

O=C(c1ccco1)N1CCN(C(=O)C2c3ccccc3Oc3ccccc32)CC1
IC50 (WT cells): > 25 µM (inactive) | IC50 [1]: > 25 µM

COC(=O)c1ccc(/C=C(\C#N)c2nc3ccccc3s2)cc1
IC50 (WT cells): > 25 µM (inactive) | IC50 [1]: > 25 µM

COc1ccc(Br)cc1CN(C)CC(=O)Nc1ccccc1Cl
IC50 (WT cells): 19.8 µM | IC50 [1]: > 25 µM

CCOc1ccc(Oc2c(/C=N/NC(=O)COc3ccccc3OC)c(C)nn2-c2ccccc2)cc1
IC50 (WT cells): 14.8 µM | IC50 [1]: > 25 µM

Cc1ccnc(NS(=O)(=O)c2ccc(N=CC3=C(O)CC(C)(C)CC3=O)cc2)n1
IC50 (WT cells): > 25 µM (inactive) | IC50 [1]: > 25 µM

Cc1ccc(NC(=S)Nc2ccc(C(C)C)cc2)cc1S(=O)(=O)N1CCCCCC1
IC50 (WT cells): 15 µM | IC50 [1]: > 25 µM

Cc1ccc(C)c(NC(=O)c2ccccc2C(=O)c2ccccc2)c1
IC50 (WT cells): 18.2 µM | IC50 [1]: > 25 µM

O=C(Nc1ccc(C(F)(F)F)cc1)c1cc(S(=O)(=O)NCC2COc3ccccc3O2)ccc1F (centres undefined)
IC50 (WT cells): 15.2 µM | IC50 [1]: > 25 µM

CN(CC(=O)O/N=C(\N)c1cccc([N+](=O)[O-])c1)S(=O)(=O)c1ccccc1
IC50 (WT cells): > 25 µM (inactive) | IC50 [1]: > 25 µM

Cc1ccc(NCC(=O)N/N=C/c2cc3ccccc3nc2Cl)cc1
IC50 (WT cells): > 25 µM (inactive) | IC50 [1]: > 25 µM

CCOc1ccc(Cc2c(Cl)nc(SC)nc2N(C)C)cc1
IC50 (WT cells): 11.8 µM | IC50 [1]: > 25 µM

CCOC(=O)c1c(NC(=O)C2CCN(S(=O)(=O)c3cccs3)CC2)sc(C)c1C
IC50 (WT cells): > 25 µM (inactive) | IC50 [1]: > 25 µM

Cc1ccc(Nc2nc(N)nc(CSc3nc4ccccc4s3)n2)cc1
IC50 (WT cells): 14.2 µM | IC50 [1]: 17 µM

Cc1cc(C)nc(NC2=NCC(=O)N2c2ccc3c(c2)OCCO3)n1
IC50 (WT cells): > 25 µM (inactive) | IC50 [1]: > 25 µM

CN(C(=S)Nc1ccc(SC(F)F)cc1)c1ccc(O)cc1
IC50 (WT cells): > 25 µM (inactive) | IC50 [1]: > 25 µM
